Here are results for two compounds from article PMC9181938, “Fluorinated Analogues of Lepidilines A and C: Synthesis and Screening of Their Anticancer and Antiviral Activity” (Molecules, 2022).

Usually CC50 stands for the concentration that lowers cell viability or growth by half. What is called IC50 is the concentration at which inhibition is half-maximal. The melting point is the temperature of the solid-liquid transition.

The nature of data set [1]: Cytotoxicity MTT assay (0.1–1000 µM), CC50. The format is cell-based, Cercopithecus aethiops. The note with it: Cercopithecus aethiops, Vero cells, read-out: CC50 Normal Cell Lines Vero. (Formazan colour is commonly taken as a measure of viable cells.)
Data set [2] relates to Human herpesvirus 5 (HCMV). Kind of data set: Antiviral activity assay (0.1–1000 µM), IC50, plaque reduction. The conditions noted are these: Human betaherpesvirus 5, 20 PFU/well. The format is cell-based. Here is the method:
(§1) Antiviral properties of compounds 1e–1g, 1e[PF6], 8a–8d, and 9a were assessed against five viruses: Human herpesvirus 1 (HSV-1, VR-539), Human parainfluenza virus type 3 (HPIV-3, VR-93), Human adenovirus 5 (AdV5, VR-5), Human herpesvirus 5 (HCMV, VR-977), and Encephalomyocarditis virus (EMCV, VR-1479). Viruses were purchased from the American Type Culture Collection (ATCC, Manassas, VA, USA).
(§2) All tested compounds were dissolved in DMSO (dimethyl sulfoxide, Sigma-Aldrich, Darmstadt, Germany) and then suspended in Minimum Essential Medium (MEM; Sigma-Aldrich, Darmstadt, Germany) supplemented with 2% heat-inactivated fetal bovine serum (FBS; Sigma-Aldrich, Darmstadt, Germany), 2 mM L-glutamine (Sigma-Aldrich, Darmstadt, Germany), and 100 units/mL penicillin G with […] streptomycin (Sigma-Aldrich, Darmstadt, Germany).
(§3) Investigated cells were propagated in Minimum Essential Medium (MEM; Sigma-Aldrich, Darmstadt, Germany) supplemented with 10% heat-inactivated fetal bovine serum (FBS; Sigma-Aldrich, Darmstadt, Germany) and 100 units/mL penicillin G with […] streptomycin (Sigma-Aldrich, Darmstadt, Germany). After reaching 80–90% confluency, cells were harvested with trypsin (Life Technologies, Warsaw, Poland) and seeded into 96-well microplates at 2 × 10^5 cells/mL after overnight incubation of cells at 37 °C in a humidified atmosphere containing 5% CO2.
(§4) The culture medium was removed from confluent cells grown in 96-well microplates, and the cells were inoculated with virus solutions in MEM supplemented with 2% FBS and antibiotics (HSV-1 MOI 0.005, 1000 virions/mL; HPIV-3 MOI 0.01, 2000 virions/mL; AdV5 MOI 0.005, 1000 virions/mL; EMCV 0.005, 1000 virions/mL; HCMV 20 PFU/well (plaque-forming units per well). After a 1-h (HSV-1, HPIV-3, AdV5, and EMCV) or 2-h adsorption period (HCMV), residual viral particles were removed, and infected cells were further incubated with MEM supplemented with 2% FBS containing compound concentrations in the range from 0.1 to 1000 µM [38]. All experiments were carried out in triplicate. The cell monolayers were incubated with the investigated compounds at 37 °C in a humidified atmosphere containing 5% CO2 until a cytopathic effect (CPE) was visible. Viral infection was evaluated by the MTT assay (as described previously) or plaque reduction assay. HCMV plaques were counted under an inverted microscope, Olympus IX73 (Olympus, Tokyo, Japan). Antiviral activity was expressed as the concentration required to reduce the number of viral plaques to 50% of the control (virus-infected but untreated).

A short description of data set [3]: Cytotoxicity MTT assay (0.1–1000 µM), CC50. The format is cell-based, Macaca mulatta. The conditions noted are these: Macaca mulatta, LLC-MK2 cells, LLC-MK2, MTT, 48 h; read-out: CC50 Normal Cell Lines LLC-MK2.
Data set [4] is described as follows: Cytotoxicity MTT assay (0.1–1000 µM), CC50. The format is cell-based, Human. The note with it: human, MRC-5 cells, MRC-5, MTT, read-out: CC50 Normal Cell Lines MRC-5.
Data set [5] in a line: Cytotoxicity MTT assay (0.1–1000 µM), CC50. The format is cell-based, Human. The conditions noted are these: human, A549 cells, read-out: CC50 Cancer Cell Lines A549.
The nature of data set [6]: Cytotoxicity MTT assay (0.1–1000 µM), CC50. The format is cell-based, Human. The conditions noted are these: human, HepG2 cells, read-out: CC50 Cancer Cell Lines HepG2.
Data set [7] can be described thus: Cytotoxicity MTT assay (0.1–1000 µM), CC50. The format is cell-based, Human. The conditions noted are these: human, HeLa cells, MTT, 48 h, read-out: CC50 Cancer Cell Lines HeLa.
Data set [8] is described as follows: Cytotoxicity MTT assay (0.1–1000 µM), CC50. The note with it: Mus musculus, NCTC clone 929 cells, NCTC clone 929, MTT, 48 h; read-out: CC50 Normal Cell Lines NCTC Clone 929. The format is cell-based, Mus musculus.
For data set [9], the system named is Human adenovirus 5 (AdV5). Nature of the data set: Antiviral activity assay (0.1–1000 µM), IC50. The format is cell-based. The note with it: Human mastadenovirus C; AdV5, MOI 0.005; read-out: IC50 AdV5. Here is the method: as §1, §2, §3, §4
The test system of data set [10] is Human parainfluenza virus type 3 (HPIV-3). Nature of the data set: Antiviral activity assay (0.1–1000 µM), IC50. The format is cell-based. The conditions noted are these: Human respirovirus 3, HPIV-3, MOI 0.01; read-out: IC50 HPIV-3. Here is the method: as §1, §2, §3, §4
Data set [11] relates to Human herpesvirus 1 (HSV-1). Nature of the data set: Antiviral activity assay (0.1–1000 µM), IC50. The conditions noted are these: Human alphaherpesvirus 1; HSV-1, MOI 0.005. The format is cell-based. As for the experimental part: as §1, §2, §3, §4
Data set [12] deals with Encephalomyocarditis virus (EMCV). Nature of the data set: Antiviral activity assay (0.1–1000 µM), IC50. The conditions noted are these: Cardiovirus A, MOI 0.005, read-out: IC50 EMCV. The format is cell-based. Here is the method: as §1, §2, §3, §4

Like-named read-outs stand apart in the source and are kept apart here.

For `Cc1c(C)[n+](Cc2cccc(OC(F)(F)F)c2)cn1Cc1ccccc1.[Cl-]` [Compound 1f, 1-Benzyl-4,5-dimethyl-3-[3-(trifluoromethoxy)benzyl]imidazolium chloride], the melting point is 108 to 110 °C. Moreover, the half-maximal cytotoxic concentration (CC50) at 48 h in [1] was found to be 38 ± 4 µM. The IC50 in [2] was > 36.7 µM. For the same compound, the CC50 at 48 h in data set [3] was 59 ± 1 µM. For the same compound, the CC50 at 48 h in data set [4] is 36.7 ± 2.31 µM. Moreover, in data set [5], the CC50 at 48 h is 1.6 ± 0.173 µM. In [6], the CC50 at 48 h came out at 152 ± 2 µM. For the same compound, in [7], the CC50 at 48 h was 0.039 ± 0.001 µM. The CC50 at 48 h in data set [8] was 48.3 ± 2.89 µM. For the same compound, the IC50 in [9] is > 0.039 µM. Besides, the half-maximal inhibitory concentration (IC50) in data set [10] is > 59 µM. Also, the IC50 in data set [11] is > 38 µM. Also, the IC50 in data set [12] was > 48.3 µM.

`Cc1c(C)[n+](OCc2ccccc2)cn1Cc1cccc(F)c1.[Br-]` [Compound 8a, 3-Benzyloxy-1-(3-fluorobenzyl)-4,5-dimethylimidazolium bromide] came in with a melting point of 124 to 126 °C. For the same compound, the half-maximal cytotoxic concentration (CC50) at 48 h in data set [1] came to 250 ± 10 µM. Further, in data set [2], the half-inhibitory concentration (IC50) is > 206 µM. In addition, the CC50 at 48 h in [3] came out at 327 ± 7.64 µM. Moreover, in [4], the CC50 at 48 h came out at 206 ± 8.61 µM. In [5], the CC50 at 48 h is 7.5 ± 0.5 µM. The CC50 at 48 h in data set [6] is 361.7 ± 2.89 µM. Also, the CC50 at 48 h in data set [7] came out at 20 ± 3.46 µM. Moreover, the CC50 at 48 h in data set [8] came out at 257 ± 10.4 µM. In addition, in [9], the IC50 was > 20 µM. Moreover, in [10], the IC50 is > 327 µM. The concentration for half-maximal inhibition (IC50) in data set [11] was > 250 µM. The 50% inhibitory concentration (IC50) in data set [12] is > 257 µM.
